Assay results as given in US20120040941A1, “5-(2--1-HYDROXYETHYL)-8-HYDROXYQUINOLIN-2(1H)-ONE AND ITS USE IN THE TREATMENT OF PULMONARY DISEASES” (priority 2009, published 2012).

Key:
Format in all cases: in vivo, human
[1] = system: asthma patients; assay: Clinical Phase II study: lung function (spirometry, body plethysmography) after single inhaled doses
From the text: (§1) Clinical Phase II study: A randomised double-blind, double-dummy, placebo and active comparator-controlled, cross-over trial assesses the activity, safety, tolerability and pharmacokinetics of single doses of 5-(2-{[6-(2,2-difluoro-2-phenylethoxy)hexyl]amino}-1-(R)-hydroxyethyl)-8-hydroxyquinolin-2(1H)-one heminapadisylate by inhalation in asthma patients.
(§2) Methods: Men with a diagnosis of mild to moderate persistent asthma, as defined by the 2006 GINA guideline, for at least 6 months prior to screening and with a FEV 1 61-85% of the predicted normal values (according to Quanjer et al. 1993) were randomised to treatment sequences comprising a single-dose administration of 5-(2-{[6-(2,2-difluoro-2-phenylethoxy)hexyl]amino}-1-(R)-hydroxyethyl)-8-hydroxyquinolin-2(1H)-one heminapadisylate (at metered nominal doses of 5, 10 and 25 micrograms in the Cyclohaler® device), two administrations (at time points 0 and 12 hours) of Salmeterol (at a metered nominal dose of 50 micrograms in the Cyclohaler® device) and placebo administered all of them by means of a dry powder inhaler. Lung function measurements included (by spirometry) FEV1, PEF, FVC, FEF25-75, and (by body plethysmography) sGaw and Raw.

[2] = Clinical Phase II study: pharmacokinetics, plasma level after inhalation; details: subjects receiving the dose of 5 micrograms by inhalation
From the text: as §1, §2

[3] = system: asthma patients; assay: Clinical Phase II study: safety and tolerability, adrenergic adverse events
From the text: as §1, §2

[4] = single dose 5 micrograms, patients with asthma

plasma level [2]: < 2.5 pg/mL
SMILES: O=c1ccc2c([C@@H](O)CNCCCCCCOCC(F)(F)c3ccccc3)ccc(O)c2[nH]1 [5-(2-{[6-(2,2-difluoro-2-phenylethoxy)hexyl]amino}-1-(R)-hydroxyethyl)-8-hydroxyquinolin-2(1H)-one]
differences in dose effect between the different doses ([1]; 5, 10 and 25 micrograms): no evidence of differences in dose effect | bronchodilatory action, time after dosing ([1]; all doses (5, 10 and 25 micrograms), single inhalation): up to 36 hours | bronchodilation [1, 4]: supramaximal long-lasting bronchodilation | increase in average trough FEV1 compared to salmeterol ([1]; single dose vs salmeterol 50 micrograms at 0 and 12 hours): statistically significant | average peak and trough FEV1 compared with placebo and with salmeterol ([1]; single inhaled doses 5, 10 and 25 micrograms (all doses tested), salmeterol 2 x 50 micrograms, mild to moderate persistent asthma): clearly increased | adverse events commonly seen after adrenergic stimulation (tremor, tachycardia, restlessness) ([3]; doses 5, 10 and 25 micrograms, single inhalation): occurred only with the two higher (10 and 25 micrograms) doses | systemic adrenergic effects [3, 4]: without producing systemic adrenergic effects
